# In PMC5833389 (Oncogenesis, 2018):
# What was measured:
# [1] = test system: PC-3 cells; test: Proliferation assay, adherent monolayer, alamarBlue; assay type: cell-based, human; settings: adherent monolayers
# Method: PC-3 cells were incubated with compounds for 5 days at 37 °C/5% CO2, stained with alamarBlue® and fluorescence was determined (544 nm/590 nm). Data were analyzed as described above.
# [2] = test system: PC-3 cells; test: Clonogenic assay in soft agar (anchorage-independent growth); assay type: cell-based, human; settings: alamarBlue, read-out: Colony formation EC50 PC-3
# Method: Clonogenic assays were performed using agarose-containing media. Cells were incubated at 37 °C and 5% CO2 for 14 days. alamarBlue® was used to detect colonies of viable cells (530 nm/590 nm). Data analysis was performed as described above.
structure (smiles),measurement,setting,value
"CN(c1ncccc1CNc1nc(Nc2ccc3c(c2)CC(=O)N3)ncc1C(F)(F)F)S(C)(=O)=O [PF-562,271, reference compound]",EC50,[1],1650 nM
same,EC50,[2],42 nM
